Experimental data published in US4407812A, “Etheral imidazoles and use in treatment of thromboses” (Laboratoires Chauvin-Blache, priority 1980, dated 1983).
Counter-ions that a name gives are not always drawn. Blank lines part the entries; values can stand above or below the compound they belong to.

Tests used:
[1] = target: T1, platelet thromboxane synthetase (Homo sapiens, UniProt P24557); assay: Inhibition of platelet thromboxane synthetase (14C-arachidonic acid incubated with washed platelet suspension, TLC); assay type: cell-based; conditions: for IC50: 14C-arachidonic acid, 10 min, 37° C., pH 7.5, read-out: 50% inhibitory concentration (IC50)
T1 construct: endogenous in cells; host or cells: washed platelets from platelet-rich plasma of venous blood
T1 sequence (P24557 1-533): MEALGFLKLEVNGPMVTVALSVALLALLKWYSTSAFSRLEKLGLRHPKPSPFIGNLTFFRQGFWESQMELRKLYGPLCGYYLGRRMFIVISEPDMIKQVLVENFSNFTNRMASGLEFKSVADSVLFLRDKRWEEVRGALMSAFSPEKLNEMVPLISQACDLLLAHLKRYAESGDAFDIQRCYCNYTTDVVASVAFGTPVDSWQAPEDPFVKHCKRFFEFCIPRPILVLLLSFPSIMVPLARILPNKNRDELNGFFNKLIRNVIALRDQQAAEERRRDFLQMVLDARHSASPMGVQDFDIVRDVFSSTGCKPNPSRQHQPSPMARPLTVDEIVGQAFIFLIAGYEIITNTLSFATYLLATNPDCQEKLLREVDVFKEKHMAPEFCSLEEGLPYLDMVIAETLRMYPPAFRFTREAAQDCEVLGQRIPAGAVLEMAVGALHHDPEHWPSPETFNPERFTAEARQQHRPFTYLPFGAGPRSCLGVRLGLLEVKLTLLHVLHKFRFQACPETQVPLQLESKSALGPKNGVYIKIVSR
Description: 1.1 Inhibition of platelet thromboxane synthetase
Platelet rich plasma (PRP) is prepared by centrifugation of venous blood at 150 g×10 min. The platelets are sedimented at 2000 g×20 min. and washed in a tris-HCl buffer at pH 7.5 (15 mM) containing EDTA (1.5 mM), NaCl, (150 mM) and KCl (5 mM). The platelet pellet is then suspended in a volume of tris-HCl (50 mM) at pH 7.5 corresponding to one-half the original PRP volume. Aliquots of platelet suspension (0.5 ml) are incubated with 1 μg ^14 C-arachidonic acid (specific activity=50 mCi/mmole) as the Na salt for 10 min. at 37° C. in the presence or the absence of test material. On completion of the reaction, the incubate is cooled to 0°-4° C., made acidic and salted by addition of citric acid and NaCl and then extracted with 2×2 ml ethyl acetate. A PGE2 standard is added to the extract which, after evaporation to dryness, is submitted to a bidimensional chromatography over a thin layer of silica (Merck F 254) in the systems: (1) benzene/dioxan/acetic acid (60:30:3); (2) chloroform/methanol/acetic acid/water (90:8:1:0.8).
The PGE2 standard is visualized with phosphomolybdic acid in the hot. The radioactivity corresponding to the metabolites of arachidonic acid is measured with a Berthold scanner. […]

[2] = Acute toxicity, LD50 on intraperitoneal administration to Swiss mice; conditions: mouse, in vivo, ip, mean ± 5% confidence interval
Source text: (§1) In Table VI are set forth results of the determination of the LD50 of Compound A on intraperitoneal administration to Wistar rats and Swiss mice.

[3] = Bleeding time (ear) in rabbits; assay type: in vivo, rabbit; conditions: 5 mg/kg subcutaneous, mean ± standard deviation
Description: 2.2 Bleeding time (ear) in rabbits
Groups of 3 male rabbits are treated subcutaneously with the test materials. Bleeding time (BT) is determined just before, and then 2 hours and 4 hours after their administration according to a standard procedure, by a "blind" acting experimenter.

[4] = Acute toxicity, LD50 on intraperitoneal administration to Wistar rats; conditions: rat, in vivo, ip, mean ± 5% confidence interval
Source text: as §1

[5] = tested on: arachidonic acid-induced platelet aggregation; assay: Ex vivo platelet aggregation in rabbits (arachidonic acid-induced); parameters: species or system rabbit; conditions: 5 mg/kg subcutaneous, two consecutive days, 2 hrs after second administration, arachidonic acid 2 mM
Description: 2.1 Ex vivo platelet aggregation in rabbits
Groups of 3 male rabbits are treated subcutaneously for two consecutive days and their plasma is taken two hrs after the second administration. Arachidonic acid-induced (2 mM) platelet aggregation is measured by the turbidimetric method according to Born.

[6] = tested on: collagen-induced platelet aggregation; assay: Inhibition of collagen-induced platelet aggregation; assay type: cell-based; conditions: Homo sapiens, collagen 20 μg, control 100
Description: (§2) 3--Inhibition of collagen-induced platelet aggregation and determination of the inhibition of thromboxane synthesis.
(§3) Venous blood sampled from volunteers is collected on sodium citrate. The platelet rich plasma (PRP) is prepared by centrifugation at 150 g×10 min.
(§4) 300 μl PRP are incubated in siliconized tubes in an aggregometer in the presence or the absence of test material dissolved in 100 μl buffer, and 20 μg collagen (Stago) are then added. Platelet aggregation is recorded by the decrease of the optical density. After 4 minutes, an acetylsalicylic acid solution (2×10^-4 M final) is added to block the synthesis of prostanoids, and thromboxane B2 is titrated in the liquid phase of the incubate by radioimmunoassay.

thromboxane synthesis = assay: Inhibition of thromboxane synthesis in collagen-stimulated PRP (thromboxane B2 radioimmunoassay); assay type: cell-based, human; conditions: collagen 20 μg, control 900
Description: as §2, §3, §4

IC50 ([1]; platelet suspension): 1.5 µM
SMILES: CCCCCC(=O)OC(/C=C/n1ccnc1)CCCCC (stereo not drawn) [E]

IC50 ([1]; platelet suspension): 1.5 µM
SMILES: CCCCCC(/C=C/n1ccnc1)OC(=O)c1ccccc1 (stereo not drawn) [C]

IC50 ([1]; platelet suspension): 1.5 µM
SMILES: CCCCCC(/C=C/n1ccnc1)OCc1ccccn1 (stereo not drawn) [G, (E)-1-(3-hydroxy-octen-1-yl)imidazole 2-pyridyl methyl ether fumarate]

IC50 ([1]; platelet suspension): 1 µM
SMILES: CCCCCC(/C=C/n1ccnc1)OCc1ccccc1 (stereo not drawn) [F]

IC50 ([1]; platelet suspension): 1.5 µM
SMILES: CCCCCC(/C=C/n1ccnc1)OC(C)=O (stereo not drawn) [D]

Second part, the compound before the results:

SMILES: c1c[nH]cn1 [Imidazole, imidazole]
inhibition of the formation of thromboxane A2 (FIG. 2) ([1]; measured by its stable degradation product): inhibits the formation of thromboxane A2
PGE2 formed concomitantly to thromboxane inhibition (FIG. 2) ([1]; platelet suspension): increasing amounts of PGE2 are formed
IC50 ([1]; platelet suspension): 50 µM

SMILES: CCCCCC(O)/C=C/n1ccnc1 (racemic) [Compound A, (E)-1-(3-hydroxy-octen-1-yl)imidazole (racemic)]
IC50 ([1]; platelet suspension): 2.5 µM
LD50 ([2]; F): 164 ± 6 mg/kg
LD50 ([2]; M): 166 ± 7 mg/kg
Bleeding time, Time 2 hours ([3]; 2 hours after administration, controls 85 ± 31): 165 ± 38 s
Bleeding time, Time 4 hours ([3]; 4 hours after administration, controls 87 ± 29): 102 ± 19 s
Bleeding time, Time 0 ([3]; just before administration, controls 70 ± 23): 80 ± 27 s
LD50 ([4]; F): 250 ± 16 mg/kg
LD50 ([4]; M): 270 ± 12 mg/kg
Deaggregation rate ([5]; controls 5): 3 arbitrary units
Maximum aggregation ([5]; controls 40): 28 % of maximum aggregation
Aggregation rate ([5]; controls 56): 32 arbitrary units

SMILES: CCCCCC(/C=C/n1ccnc1)OC(=O)c1cccnc1 (stereo not drawn) [Compound B, (E)-1-(3-hydroxy-octen-1-yl)imidazole nicotinic ester dihydrochloride]
IC50 ([1]; platelet suspension): 1 µM
activity at 10 µM ([6]; 10^-5 M): 7%
activity at 1 µM ([6]; 10^-6 M): 50%
T × B2 formed (thromboxane synthesis; 10^-5 M): 100 pmole/ml PRP
T × B2 formed (thromboxane synthesis; 10^-6 M): 400 pmole/ml PRP
